The record followed here is US11028072B2, “2,4-diamino-6-ethylpyrimidine derivatives with antimalarial activities against Plasmodium falciparum” (National Science and Technology Development Agency, priority 2015, dated 2021).

A word on the Ki: it is a dissociation constant, usually derived from enzyme kinetics or from competition with a known ligand.

Where two headings read alike, the source gives them in different places.

The subject of data set [1] is P. falciparum V1/S (N51I + C59R + S108 + I164L). The data set is described as follows: microbe, parasite or virus in culture. Format: cell-based, Plasmodium falciparum. As to conditions: Plasmodium falciparum, read-out: IC50 P. falciparum V1/S. From the text:
(§1) In Vitro Antimalarial Activites Against P. falciparum and Cytotoxicity Towards Mammalian Cells (Vero Cells)

The test system of data set [2] is P. falciparum TM4/8.2 (wild type). Nature of the data set: microbe, parasite or virus in culture. Format: cell-based, Plasmodium falciparum. As to conditions: Plasmodium falciparum, read-out: IC50 P. falciparum TM4/8.2 (WT).
Text: as §1

Data set [3] in a line: in vitro. As to conditions: African green monkey.
Text: as §1

Data set [4] addresses quadruple mutant N51I + C59R + S108N + I164L (QM) pfDHFR (Plasmodium falciparum, UniProt P13922, I164L/N51I). Nature of the data set: Inhibition of quadruple mutant pfDHFR (Ki). Format: biochemical. On the procedure: (§2) The synthesized 2,4-diamino-6-ethylpyrimdine derivatives as the hydrochloride salts were tested for the activities against Plasmodium falciparum (P. falciparum) according to the standard methods. These include the inhibition of dihydrofolate reductase (DHFR) enzymes of P. falciparum including, wild type (WT) and quadruple mutants (N51IC59RS108NI164L) (QM). The inhibition was expressed as inhibition constants (Ki) in nano molar (nM).

The target of data set [5] is wild type (WT) pfDHFR (Plasmodium falciparum, UniProt P13922, N108S/R59C). The data set is described as follows: Inhibition of wild type pfDHFR (Ki). Format: biochemical. On the procedure: as §2
wild type (WT) pfDHFR, sequence (P13922 whole entry R59C/N108S): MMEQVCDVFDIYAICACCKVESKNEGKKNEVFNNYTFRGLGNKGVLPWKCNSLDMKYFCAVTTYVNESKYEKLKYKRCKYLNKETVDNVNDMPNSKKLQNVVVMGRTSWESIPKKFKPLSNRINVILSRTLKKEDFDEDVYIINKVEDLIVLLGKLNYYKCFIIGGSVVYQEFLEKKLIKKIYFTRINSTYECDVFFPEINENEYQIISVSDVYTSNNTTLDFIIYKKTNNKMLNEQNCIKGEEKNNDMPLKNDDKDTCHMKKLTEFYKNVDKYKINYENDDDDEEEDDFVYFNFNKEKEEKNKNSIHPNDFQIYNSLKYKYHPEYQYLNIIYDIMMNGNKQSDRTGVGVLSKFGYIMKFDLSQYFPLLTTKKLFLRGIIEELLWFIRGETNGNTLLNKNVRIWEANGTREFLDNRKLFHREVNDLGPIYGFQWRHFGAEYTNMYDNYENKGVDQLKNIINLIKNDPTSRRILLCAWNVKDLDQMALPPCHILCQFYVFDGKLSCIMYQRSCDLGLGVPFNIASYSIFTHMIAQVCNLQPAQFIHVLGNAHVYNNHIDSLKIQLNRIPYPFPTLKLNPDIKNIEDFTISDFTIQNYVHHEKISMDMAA
Data set [6] deals with T1, Human dihydrofolate reductase (hDHFR) (Homo sapiens, UniProt P00374).
T1 sequence (P00374 1-187): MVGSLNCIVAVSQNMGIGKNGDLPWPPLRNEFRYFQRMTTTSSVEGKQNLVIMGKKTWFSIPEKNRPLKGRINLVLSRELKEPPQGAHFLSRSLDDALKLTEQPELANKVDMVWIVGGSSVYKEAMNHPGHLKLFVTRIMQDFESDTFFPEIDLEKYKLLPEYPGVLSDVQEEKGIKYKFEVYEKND
Nature of the data set: Inhibition of human dihydrofolate reductase (Ki). The class given is biochemical. The settings on record: human DHFR; hydrochloride salts.

The mark [7] stands for this setting: in vitro, quadruple mutant strain V1/S.
Where [8] appears, read: in vitro, wild-type strain TM4/8.2.

quadruple mutant N51I + C59R + S108N + I164L (QM) pfDHFR, sequence (P13922 whole entry N51I/I164L): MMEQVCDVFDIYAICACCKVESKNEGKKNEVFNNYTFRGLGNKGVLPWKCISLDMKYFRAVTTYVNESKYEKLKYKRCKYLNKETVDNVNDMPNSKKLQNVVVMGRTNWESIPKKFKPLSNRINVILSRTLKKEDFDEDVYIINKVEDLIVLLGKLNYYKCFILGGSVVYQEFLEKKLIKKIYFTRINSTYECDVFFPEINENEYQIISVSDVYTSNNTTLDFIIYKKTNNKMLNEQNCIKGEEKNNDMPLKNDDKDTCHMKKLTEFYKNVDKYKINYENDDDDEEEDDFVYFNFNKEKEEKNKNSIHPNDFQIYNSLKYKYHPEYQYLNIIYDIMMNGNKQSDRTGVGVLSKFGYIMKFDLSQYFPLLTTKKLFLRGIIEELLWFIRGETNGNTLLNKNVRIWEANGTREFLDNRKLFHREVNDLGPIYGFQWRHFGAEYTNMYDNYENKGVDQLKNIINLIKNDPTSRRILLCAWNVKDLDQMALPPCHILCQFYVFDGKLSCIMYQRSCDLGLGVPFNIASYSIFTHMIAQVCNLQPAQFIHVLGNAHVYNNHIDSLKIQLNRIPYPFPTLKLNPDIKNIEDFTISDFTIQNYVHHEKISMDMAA

Consider `CCc1nc(N)nc(N)c1OCc1cc(-c2ccc(C(=O)O)cc2)no1` [Compound 44], for which the IC50 in data set [1] (setting [7]) is more than 10 µM; in data set [2] (setting [8]) it was 7.77 ± 1.47 µM; in data set [3], more than 10 µM. For the same compound, the Ki in data set [4] was 0.245 ± 0.0346 µM; in data set [5], 0.00375 ± 0.00031 µM; in data set [6], more than 100 µM.
Take `CCc1nc(N)nc(N)c1OCc1cn(Cc2ccc(C(=O)O)cc2)nn1` [Compound 29]: the IC50 in data set [1] (setting [7]), in data set [2] (setting [8]) and in data set [3] was more than 25 µM in each case. The Ki in data set [4] turned out to be 0.477 ± 0.0323 µM; in data set [5], 0.0145 ± 0.00162 µM. Further, in data set [6], the “Ki hDHFR” value is recorded as “High”.
In the case of `CCc1nc(N)nc(N)c1OCc1csc(-c2cccc(C)c2)n1` [Compound 61], the IC50 in data set [1] (setting [7]) turned out to be 18 ± 7.77 µM; in data set [2] (setting [8]), 0.84 ± 0.1 µM; in data set [3] it was 31.3 ± 7.75 µM. For the same compound, the Ki in data set [4] was determined as 0.0377 ± 0.00304 µM; in data set [5], 0.00034 ± 5e-05 µM; in data set [6], 0.1315 ± 0.00088 µM.
As to `CCc1nc(N)nc(N)c1OCc1cc(-c2ccc(F)cc2)no1` [Compound 34], the IC50 was 18.9 ± 4.44 µM in data set [1], 1.6 ± 0.79 µM in data set [2] and more than 25 µM in data set [3]. Besides, the inhibition constant Ki in data set [4] was 0.0776 ± 0.0148 µM; in data set [5], 0.00101 ± 5e-05 µM; in data set [6], 1.08 ± 0.0937 µM.
In the case of `CCc1nc(N)nc(N)c1OCc1cc(-c2ccc(Cl)cc2)no1` [Compound 35], the results for the IC50 in data set [1], in data set [2] and in data set [3] were 20.9 ± 4.08 µM, 2.5 ± 0.34 µM and more than 25 µM, respectively. Also, the Ki in data set [4] turned out to be 0.065 ± 0.0119 µM; in data set [5], 0.00095 ± 2e-05 µM; in data set [6], 1.17 ± 0.13 µM.
As for `CCc1nc(N)nc(N)c1OCc1csc(-c2ccc(C(=O)OC)cc2)n1` [Compound 74], the values for the IC50 in data set [1], in data set [2] and in data set [3] were 15.9 ± 2.11 µM, 0.4 ± 0.13 µM and more than 50 µM, respectively. Moreover, the Ki in data set [4] came out at 0.034 ± 0.00542 µM; in data set [5], 0.00065 ± 6e-05 µM; in data set [6], 0.447 ± 0.11 µM.
Consider `CCc1nc(N)nc(N)c1OCc1csc(-c2ccccc2)n1` [Compound 60], for which the IC50 is 20.8 ± 1.86 µM in data set [1] (setting [7]), 1.2 ± 0.38 µM in data set [2] (setting [8]) and more than 50 µM in data set [3]. The Ki in data set [4] turned out to be 0.0388 ± 0.00558 µM; in data set [5], 0.00102 ± 0.00014 µM; in data set [6], 0.276 ± 0.0167 µM.
Turning to `CCc1nc(N)nc(N)c1OCc1coc(-c2ccccc2)n1` [Compound 50], the IC50 in data set [1] (setting [7]) is 13.7 ± 4.08 µM; in data set [2] (setting [8]) it was 2.25 ± 0.71 µM; in data set [3], more than 50 µM. Moreover, the Ki in data set [4] was determined as 0.0556 ± 0.00879 µM; in data set [5], 0.00133 ± 7e-05 µM; in data set [6] it was 0.292 ± 0.0222 µM.
On to `CCc1nc(N)nc(N)c1OCCc1cn(-c2ccc(C(=O)OC)cc2)nn1` [Compound 21], for which the IC50 in data set [1] (setting [7]) was more than 25 µM; in data set [2] (setting [8]), 0.49 ± 0.07 µM; in data set [3] it was more than 25 µM. In addition, the Ki was 0.00856 ± 0.00146 µM in data set [4], 0.00048 ± 0.0001 µM in data set [5] and 1.06 ± 0.0895 µM in data set [6].
Turning to `CCc1nc(N)nc(N)c1OCc1cn(Cc2cccc(C(=O)O)c2)nn1` [Compound 26], the IC50 in data set [1] (setting [7]), in data set [2] (setting [8]) and in data set [3] was more than 25 µM in each case. In addition, the Ki came out at 0.388 ± 0.0262 µM in data set [4] and 0.0195 ± 0.00106 µM in data set [5]. In data set [6], the “Ki hDHFR” value was “High”.
For the compound `CCc1nc(N)nc(N)c1-c1cn(CCCOc2ccc(C(=O)OC)cc2)nn1` [Compound 12], the IC50 in data set [1] is more than 50 µM; in data set [2] it was 0.97 ± 0.4 µM; in data set [3], 47.6 ± 6.27 µM. Also, the values for the Ki in data set [4], in data set [5] and in data set [6] were 0.034 ± 0.00551 µM, 0.00082 ± 6e-05 µM and 0.875 ± 0.0279 µM, respectively.
As to `CCc1nc(N)nc(N)c1OCc1cn(-c2ccc(C(=O)OC)cc2)nn1` [Compound 18], the IC50 in data set [1] (setting [7]) is 13.6 ± 3.22 µM; in data set [2] (setting [8]), 10.5 ± 3.1 µM; in data set [3], more than 50 µM. The Ki was determined as 0.833 ± 0.045 µM in data set [4] and 0.00654 ± 0.00125 µM in data set [5]. Further, the “Ki hDHFR” value in data set [6] is given as “High”.
For `CCc1nc(N)nc(N)c1-c1cn(CCCc2ccccc2)nn1` [Compound 8], the IC50 in data set [1] is 32.3 ± 3.06 µM; in data set [2], 5.58 ± 0.67 µM; in data set [3], more than 50 µM. Moreover, the Ki in data set [4] was found to be 0.0498 ± 0.00189 µM; in data set [5], 0.00282 ± 0.0001 µM; in data set [6], 3.68 ± 0.48 µM.
